From patent US8222280B2, “Ether compounds with nitrogen-containing 5-member heterocycle and uses thereof” (Sinochem Corporation, priority 2008, dated 2012)

Experiments:
[1] = system: second instar larvae of diamond backmoth (Plutella xylostella); assay: Insecticidal activity against diamond backmoth, leaf disc spraying by airbrush; format: in vivo; details: mortality after 72 hrs, sprayed cabbage leaf disc
Method: To determine the insecticidal and acaricidal activity of selected compounds by the following procedures:
Compounds were dissolved in mixed solvent (acetone:methanol=1:1), and diluted to required concentration with water containing 0.1% of tween 80.
The second instar larvae of diamond backmoth (Plutella xylostella) were used in biological test. The method of spraying by airbrush was employed.
Determination of insecticidal activity against diamond backmoth: The cabbage leaves were made into plates of 1 cm diameter by punch. A test solution (0.5 ml) was sprayed by airbrush at the pressure of 0.7 kg/cm^2 to both sides of every plate. 10 Second instar larvae were put into the petri-dishes after the leaf disc air-dried and 3 replicates were set for each treatment. Then the insects were maintained in observation room ([…], 60-70% R.H.). Scores were conducted and mortalities were calculated after 72 hrs.

wheat powdery mildew = assay: Fungicidal activity in vivo on potted plants; details: 400 ppm; sprayed on potted plant, inoculation after 24 hours, visual assessment after about 1 week
Method: Determination of fungicidal activities against plant diseases of selected compounds were carried out by the following procedure:
Determination of Fungicidal Activity In Vivo:
Plants were prepared in pot. Compounds were dissolved in acetone and diluted to required concentration by water containing 0.1% (wt) Tween80. Test solution was sprayed onto potted plant. Pathogen inoculation was carried out after 24 hours, then plants were hold in growth chambers maintaining constant temperature and moisture for infection. When untreated plant was under desirable disease severity (after 1 week approximately), assessment was carried out by visual observation.

SMILES | control of the second instar larvae of diamond backmoth ([1]; dose 100 mg/L) | other results
Cc1c(OCCCOc2c(Cl)cc(OCC=C(Cl)Cl)cc2Cl)nn(C)c1-c1ccc(C(C)(C)C)cc1 [Compound 389] | 100% | 
Cc1c(OCCCCOc2c(Cl)cc(OCC=C(Cl)Cl)cc2Cl)nn(C)c1-c1ccccc1 [Compound 532] | 100% | 
ClC(Cl)=CCOc1cc(Cl)c(OCCCOc2cnn(-c3ccc(Cl)cc3)c2)c(Cl)c1 [Compound 546] | 100% | 
CCCc1ccc(-c2cc(OCCCOc3c(Cl)cc(OCC=C(Cl)Cl)cc3Cl)n(C)n2)cc1 [Compound 38] | 100% | 
Cc1c(OCCCOc2c(Cl)cc(OCC=C(Cl)Cl)cc2Cl)nn(C)c1-c1ccc(Cl)c(Cl)c1 [Compound 361] | 100% | 
CSc1ccc(-c2cc(OCCCOc3c(Cl)cc(OCC=C(Cl)Cl)cc3Cl)n(C)n2)cc1 [Compound 8] | 100% | 
Cn1nc(OCCCCOc2c(Cl)cc(OCC=C(Cl)Cl)cc2Cl)cc1-c1ccc(Cl)cc1 [Compound 522] | 100% | 
COc1ccc(-c2cc(OCCCOc3c(Cl)cc(OCC=C(Cl)Cl)cc3Cl)nn2C)cc1 [Compound 280] | 100% | 
COc1ccccc1-c1cc(OCCCOc2c(Cl)cc(OCC=C(Cl)Cl)cc2Cl)n(C)n1 [Compound 24] | 100% | 
Cc1ccc(-c2c(C)c(OCCCOc3c(Cl)cc(OCC=C(Cl)Cl)cc3Cl)nn2C)cc1C [Compound 377] | 100% | control of the second instar larvae of diamond backmoth ([1]; dose 25 mg/L): 100%
Cn1nc(-c2ccc(Br)cc2)cc1OCCCOc1c(Cl)cc(OCC=C(Cl)Cl)cc1Cl [Compound 16] | 100% | 
Cc1ccc(-c2c(C)c(OCCCOc3c(Cl)cc(OCC=C(Cl)Cl)cc3Cl)nn2C)cc1 [Compound 367] | 100% | control of the second instar larvae of diamond backmoth ([1]; dose 25 mg/L): 100%
Cc1c(-c2ccccc2)nn(C)c1OCCCCOc1c(Cl)cc(OCC=C(Cl)Cl)cc1Cl [Compound 257] | 100% | 
Cc1c(-c2ccc(Cl)cc2)nn(C)c1OCCCOc1c(Cl)cc(OCC=C(Cl)Cl)cc1Cl [Compound 77] | 100% | 
Cn1nc(OCCOc2c(Cl)cc(OCC=C(Cl)Cl)cc2Cl)cc1-c1ccc(Cl)cc1 [Compound 500] | 100% | 
CCOc1ccc(-c2c(C)c(OCCCOc3c(Cl)cc(OCC=C(Cl)Cl)cc3Cl)nn2C)cc1 [Compound 356] | 100% | 
COc1ccc(-c2c(C)c(OCCCOc3c(Cl)cc(OCC=C(Cl)Cl)cc3Cl)nn2C)cc1 [Compound 363] | 100% | 
Cc1ccc(-c2c(C)c(OCCCCOc3c(Cl)cc(OCC=C(Cl)Cl)cc3Cl)nn2C)cc1 [Compound 538] | 100% | 
Cc1c(-c2ccc(Cl)cc2Cl)nn(C)c1OCCCOc1c(Cl)cc(OCC=C(Cl)Cl)cc1Cl [Compound 86] | 100% | 
Cn1nc(-c2ccc(Cl)cc2)cc1OCCCCOc1ccc(OCC=C(Cl)Cl)cc1Cl [Compound 248] | 100% | control of the second instar larvae of diamond backmoth ([1]; dose 25 mg/L): 100%
Cc1c(-c2ccccc2)nn(C)c1OCCCOc1c(Cl)cc(OCC=C(Cl)Cl)cc1Cl [Compound 76] | 100% | 
Cc1ccc(-c2cc(OCCCOc3c(Cl)cc(OCC=C(Cl)Cl)cc3Cl)n(C)n2)c(C)c1 [Compound 26] | 100% | 

SMILES | control of the second instar larvae of diamond backmoth ([1]; dose 100 mg/L) | other results
Cc1c(OCCCOc2c(Cl)cc(OCC=C(Cl)Cl)cc2Cl)nn(C)c1-c1ccc(F)cc1 [Compound 352] | 100% | control of the second instar larvae of diamond backmoth ([1]; dose 25 mg/L): 100%
Cc1c(OCCCOc2c(Cl)cc(OCC=C(Cl)Cl)cc2Cl)nn(C)c1-c1ccc(C(C)C)cc1 [Compound 387] | 100% | control of the second instar larvae of diamond backmoth ([1]; dose 25 mg/L): 100%
Cn1nc(-c2ccc(Cl)cc2)cc1OCCCCOc1c(Cl)cc(OCC=C(Cl)Cl)cc1Cl [Compound 247] | 100% | control of the second instar larvae of diamond backmoth ([1]; dose 25 mg/L): 100%
Cn1nc(OCCCOc2c(Cl)cc(OCC=C(Cl)Cl)cc2Cl)cc1-c1ccccc1 [Compound 268] | 100% | control of the second instar larvae of diamond backmoth ([1]; dose 25 mg/L): 100%
Cn1nc(-c2ccc(Cl)cc2)cc1OCCOc1c(Cl)cc(OCC=C(Cl)Cl)cc1Cl [Compound 225] | 100% | control of the second instar larvae of diamond backmoth ([1]; dose 25 mg/L): 100%
CCc1ccc(-c2cc(OCCCOc3c(Cl)cc(OCC=C(Cl)Cl)cc3Cl)n(C)n2)cc1 [Compound 18] | 100% | 
Cn1nc(OCCCOc2c(Cl)cc(OCC=C(Cl)Cl)cc2Cl)cc1-c1ccc(C(C)(C)C)cc1 [Compound 306] | 100% | 
CCc1ccc(-c2c(C)c(OCCCOc3c(Cl)cc(OCC=C(Cl)Cl)cc3Cl)nn2C)cc1 [Compound 368] | 100% | 
FC(F)(F)c1ccc(OCCCOc2c(Cl)cc(OCC=C(Cl)Cl)cc2Cl)nc1 [pyridalyl, Pyridalyl, reference compound] | 100% | control of the second instar larvae of diamond backmoth ([1]; dose 6.25 mg/L): 65%; control of the second instar larvae of diamond backmoth ([1]; dose 25 mg/L): 100%
Cc1ccc(-c2nn(C)c(OCCCOc3c(Cl)cc(OCC=C(Cl)Cl)cc3Cl)c2C)cc1 [Compound 92] | 100% | 
Cc1ccc(-c2cc(OCCCOc3c(Cl)cc(OCC=C(Cl)Cl)cc3Cl)nn2C)cc1 [Compound 284] | 100% | 
Cn1nc(-c2ccccc2)cc1OCCCOc1c(Cl)cc(OCC=C(Cl)Cl)cc1Cl [Compound 1] | 100% | 
Cn1nc(-c2ccc(Cl)cc2Cl)cc1OCCCOc1c(Cl)cc(OCC=C(Cl)Cl)cc1Cl [Compound 11] | 100% | 
Cn1nc(OCCCOc2c(Cl)cc(OCC=C(Cl)Cl)cc2Cl)cc1-c1ccc(Cl)cc1Cl [Compound 278] | 100% | 
Cc1c(OCCCOc2c(Cl)cc(OCC=C(Cl)Cl)cc2Cl)nn(C)c1-c1ccc(Cl)cc1Cl [Compound 360] | 100% | 
Cc1ccc(-c2cc(OCCCOc3c(Cl)cc(OCC=C(Cl)Cl)cc3Cl)nn2C)c(C)c1 [Compound 293] | 100% | 
Cn1nc(-c2ccc(Cl)cc2)cc1OCCCOc1c(Cl)cc(OCC=C(Cl)Cl)cc1Cl [Compound 2] | 100% | control of wheat powdery mildew (wheat powdery mildew): more than 70%; control of the second instar larvae of diamond backmoth ([1]; dose 25 mg/L): 100%
Cn1nc(OCCCOc2c(Cl)cc(OCC=C(Cl)Cl)cc2Cl)cc1-c1ccc(Br)cc1 [Compound 283] | 100% | 
Cc1ccc(-c2cc(OCCCOc3c(Cl)cc(OCC=C(Cl)Cl)cc3Cl)n(C)n2)cc1 [Compound 17] | 100% | 
Cn1nc(OCCCOc2c(Cl)cc(OCC=C(Cl)Cl)cc2Cl)cc1-c1ccc(Cl)cc1 [Compound 269] | 100% | control of the second instar larvae of diamond backmoth ([1]; dose 25 mg/L): 100%
COc1ccc(-c2cc(OCCCOc3c(Cl)cc(OCC=C(Cl)Cl)cc3Cl)n(C)n2)cc1 [Compound 13] | 100% | 
